This note sets out measurements from paper PMC6720511, “Synthesis and biological evaluation of novel N-(piperazin-1-yl)alkyl-1H-dibenzo[a,c]carbazole derivatives of dehydroabietic acid as potential MEK inhibitors” (Journal of Enzyme Inhibition and Medicinal Chemistry, 2019).

Like-named read-outs stand apart in the source and are kept apart here. Where only a bound is given, the exact number is not on record here.

In data set [1] the test system is normal hepatocyte cell line (QSG-7701). In words: MTT cytotoxic assay on normal hepatocytes. Format: cell-based, human. To be noted: mean value ± SD. On the procedure: (§1) Three human hepatocarcinoma cell lines (SMMC-7721, HepG2 and Hep3B) and normal hepatocyte cell line (QSG-7701) were maintained in Dulbecco Modified Eagle Medium (DMEM) containing 4.0 mM L-Glutamine and 4500 mg/l Glucose supplemented with 10% (v/v) foetalbovine serum (FBS) and 100 unites/mL penicillin/streptomycin at 37 °C in humidified atmosphere of 5% CO2 and 95% air.
(§2) The in vitro cytotoxic activities of the carbazole derivatives of DHA were evaluated against three human hepatocarcinoma cell lines (SMMC-7721, HepG2 and Hep3B) and a normal human hepatocyte cell line (QSG-7701) via the MTT colorimetric method. Briefly, SMMC-7721, HepG2, Hep3B and QSG-7701 cells were harvested at log phase of growth and seeded in 96-well plates (100 µL/well at a density of 2 × 10^5 cells/mL). After 24 h incubation at 37 °C and 5% CO2 to allow cell attachment, cultures were exposed to various concentrations of the isolated compounds for 48 h. Finally, MTT solution (2.5 mg/mL in PBS) was added (40 µL/well). Plates were further incubated for 4 h at 37 °C, and the formazan crystals formed were dissolved by adding 150 µL/well of DMSO. Absorption at 570 nm was measured with an ELISA plate reader. […] Doxorubicin was co-assayed as positive control.

In a further data set the test system is HepG2. In words: MTT cytotoxic assay. Format: cell-based, human. The settings on record: mean value ± SD. On the procedure: as §1, §2
The test system of the next data set is Hep3B. In words: MTT cytotoxic assay. The format is cell-based, human. The settings on record: 48 h, mean value ± SD. On the procedure:
as §1, §2

The next data set deals with SMMC-7721. In words: MTT cytotoxic assay. The format is cell-based, human. The settings on record: mean value ± SD. Here is the method: as §1, §2
In data set [2] the test system is three human hepatocarcinoma cell lines (SMMC-7721, HepG2 and Hep3B). In words: MTT cytotoxic assay, statements over the three cancer cell lines. Format: cell-based. The settings on record: for cytotoxic activity against three cancer cell lines (in words): SMMC-7721, HepG2 and Hep3B. On the procedure: as §1, §2
The mark [3] stands for this setting: at least one of SMMC-7721, HepG2, Hep3B, read-out: IC50 against at least one hepatocarcinoma cell line.
Setting [4] is: over SMMC-7721, HepG2 and Hep3B, read-out: IC50 against the three cancer cell lines.

As for “2,3,4,4a,9,13c-Hexahydro-7-isopropyl-1,4a-dimethyl-9–(2-(1,4-diazepan-1-yl) butyl)-1H-dibenzo[a,c]carbazole-1-carboxylic acid methyl ester [Compound 8d]”, the IC50 turned out to be 43.6 ± 4.03 µM in data set [1] (48 h), 11.5 ± 1.23 µM in the data set on HepG2 (48 h), 14.4 ± 0.77 µM in the data set on Hep3B and 12.8 ± 0.84 µM in the data set with SMMC-7721 (48 h).
Turning to “2,3,4,4a,9,13c-Hexahydro-7-isopropyl-1,4a-dimethyl-9–(2-(1,4-diazepan-1-yl) propyl)-1H-dibenzo[a,c]carbazole-1-carboxylic acid methyl ester [Compound 7d]”, the IC50 in data set [1] (48 h) is 32.8 ± 3.22 µM; in the data set with HepG2 (48 h), 8.68 ± 1.13 µM; in the data set on Hep3B, 12.8 ± 0.67 µM; with SMMC-7721 (48 h), 10.3 ± 1.02 µM; in data set [2] (setting [3]) it was less than 10 µM.
Turning to “2,3,4,4a,9,13c-Hexahydro-7-isopropyl-1,4a-dimethyl-9–(2-(4-(pyridine-2-yl) piperazin-1-yl)butyl)-1H-dibenzo[a,c]carbazole-1-carboxylic acid methyl ester [Compound 8g]”, the IC50 in the data set on HepG2 (48 h), in the data set with Hep3B and in the data set on SMMC-7721 (48 h) was greater than 50 µM throughout.
For “2,3,4,4a,9,13c-Hexahydro-7-isopropyl-1,4a-dimethyl-9–(2-(4-(pyridine-2-yl) piperazin-1-yl)propyl)-1H-dibenzo[a,c]carbazole-1-carboxylic acid methyl ester [Compound 7g]”, the IC50 in the data set with HepG2 (48 h), with Hep3B and with SMMC-7721 (48 h) was greater than 50 µM throughout.
With “2,3,4,4a,9,13c-Hexahydro-7-isopropyl-1,4a-dimethyl-9–(2-(4-benzylpiperazin -1-yl)butyl)-1H-dibenzo[a,c]carbazole-1-carboxylic acid methyl ester [Compound 8h]”, the IC50 in the data set with HepG2 (48 h), in the data set with Hep3B and in the data set on SMMC-7721 (48 h) was greater than 50 µM throughout.
With “2,3,4,4a,9,13c-Hexahydro-7-isopropyl-1,4a-dimethyl-9–(2-(4-benzylpiperazin-1-yl)propyl)-1H-dibenzo[a,c]carbazole-1-carboxylic acid methyl ester [Compound 7h]”, the IC50 in the data set with HepG2 (48 h), in the data set with Hep3B and with SMMC-7721 (48 h) was greater than 50 µM each time.
For the compound “2,3,4,4a,9,13c-Hexahydro-7-isopropyl-1,4a-dimethyl-9–(2-(4-ethylpiperazin -1-yl)butyl)-1H-dibenzo[a,c]carbazole-1-carboxylic acid methyl ester [Compound 8c]”, the IC50 in the data set with HepG2 (48 h), in the data set on Hep3B and with SMMC-7721 (48 h) was greater than 50 µM each time. Besides, the “cytotoxic activity against three cancer cell lines (in words)” value (shortened to “cytotoxic activity”) in data set [2] was “weak or no inhibitions”.
“2,3,4,4a,9,13c-Hexahydro-7-isopropyl-1,4a-dimethyl-9–(2-(4-ethylpiperazin -1-yl)propyl)-1H-dibenzo[a,c]carbazole-1-carboxylic acid methyl ester [Compound 7c]”: the results for the IC50 in the data set with HepG2 (48 h), with Hep3B and with SMMC-7721 (48 h) were greater than 50 µM, 40.7 ± 2.62 µM and greater than 50 µM, respectively. The “cytotoxic activity” value in data set [2] was “weak or no inhibitions”.
Consider “2,3,4,4a,9,13c-Hexahydro-7-isopropyl-1,4a-dimethyl-9–(2-(4-formylpiperazin-1-yl)butyl)-1H-dibenzo[a,c]carbazole-1-carboxylic acid methyl ester [Compound 8e]”, for which the IC50 in data set [1] (48 h) is greater than 50 µM; in the data set with HepG2 (48 h) it was 41.2 ± 3.56 µM; in the data set with Hep3B it was 38 ± 1.75 µM; in the data set on SMMC-7721 (48 h) it was 32.1 ± 2.78 µM. Besides, in data set [2], the “cytotoxic activity” value is “moderate inhibitions”.
On to “2,3,4,4a,9,13c-Hexahydro-7-isopropyl-1,4a-dimethyl-9–(2-(4-formylpiperazin-1-yl)propyl)-1H-dibenzo[a,c]carbazole-1-carboxylic acid methyl ester [Compound 7e]”, for which the IC50 in data set [1] (48 h) is greater than 50 µM; in the data set with HepG2 (48 h), 16.9 ± 1.58 µM; in the data set with Hep3B, 20 ± 1.22 µM; with SMMC-7721 (48 h), 23.3 ± 2.35 µM. Further, the “cytotoxic activity” value in data set [2] was “moderate inhibitions”.
In the case of “2,3,4,4a,9,13c-Hexahydro-7-isopropyl-1,4a-dimethyl-9–(2-(4-phenyl piperazin-1-yl)butyl)-1H-dibenzo[a,c]carbazole-1-carboxylic acid methyl ester [Compound 8f]”, the 50% inhibitory concentration (IC50) in the data set on HepG2 (48 h), in the data set on Hep3B and in the data set with SMMC-7721 (48 h) was greater than 50 µM in each case.
Turning to “2,3,4,4a,9,13c-Hexahydro-7-isopropyl-1,4a-dimethyl-9–(2-(4-phenyl piperazin-1-yl)propyl)-1H-dibenzo[a,c]carbazole-1-carboxylic acid methyl ester [Compound 7f]”, the IC50 in the data set on HepG2 (48 h), with Hep3B and with SMMC-7721 (48 h) was greater than 50 µM throughout.
Regarding “2,3,4,4a,9,13c-Hexahydro-7-isopropyl-1,4a-dimethyl-9–(2-(piperazin-1-yl) butyl)-1H-dibenzo[a,c]carbazole-1-carboxylic acid methyl ester [Compound 8a]”, the IC50 was 23.4 ± 2.97 µM in data set [1] (48 h); 4.8 ± 0.32 µM in the data set on HepG2 (48 h); 2.89 ± 0.27 µM with Hep3B; 6.1 ± 0.47 µM with SMMC-7721 (48 h); less than 10 µM in data set [2] (setting [3]); 2.89 to 6.1 µM in data set [2] (setting [4]).
Consider “2,3,4,4a,9,13c-Hexahydro-7-isopropyl-1,4a-dimethyl-9–(2-(piperazin-1-yl) propyl)-1H-dibenzo[a,c]carbazole-1-carboxylic acid methyl ester [Compound 7a]”, for which the IC50 in data set [1] (48 h) is 17.2 ± 1.89 µM; in the data set with HepG2 (48 h), 3.1 ± 0.45 µM; with Hep3B, 1.37 ± 0.2 µM; with SMMC-7721 (48 h) it was 5.1 ± 0.18 µM; in data set [2] (setting [3]), less than 10 µM; in data set [2] (setting [4]), 1.37 to 5.1 µM.
Regarding “2,3,4,4a,9,13c-Hexahydro-7-isopropyl-1,4a-dimethyl-9–(3-(4-methyl piperazin-1-yl)butyl)-1H-dibenzo[a,c]carbazole-1-carboxylic acid methyl ester [Compound 8b]”, the IC50 is greater than 50 µM in data set [1] (48 h), 19.6 ± 2.91 µM in the data set with HepG2 (48 h), 18.3 ± 1.02 µM in the data set with Hep3B and 34.9 ± 3.35 µM with SMMC-7721 (48 h).
For the compound `COC(=O)C1(C)CCCC2(C)c3ccc(C(C)C)cc3-c3c(c4ccccc4n3CCN3CCN(C)CC3)C12` (stereo not shown) [Compound 6b, 2,3,4,4a,9,13c-Hexahydro-7-isopropyl-1,4a-dimethyl-9–(2-(4-methylpiperazin-1-yl)ethyl)-1H-dibenzo[a,c]carbazole-1-carboxylic acid methyl ester], the IC50 in data set [1] (Homo sapiens, QSG7701, 48 h) is 27.5 ± 1.87 µM; in the data set on HepG2 (Homo sapiens, HepG2, 48 h), 11.7 ± 0.58 µM; with Hep3B (Homo sapiens, Hep3B) it was 6.78 ± 0.42 µM; in the data set with SMMC-7721 (Homo sapiens, SMMC-7721, 48 h) it was 13.2 ± 0.76 µM; in data set [2] (Homo sapiens, at least one of SMMC-7721, HepG2, Hep3B, read-out: IC50 against at least one hepatocarcinoma cell line), less than 10 µM.
As for `COC(=O)C1(C)CCCC2(C)c3ccc(C(C)C)cc3-c3c(c4ccccc4n3CCN3CCN(c4ccccc4)CC3)C12` (stereo not shown) [Compound 6f, 2,3,4,4a,9,13c-Hexahydro-7-isopropyl-1,4a-dimethyl-9–(2-(4-phenylpiperazin-1-yl)ethyl)-1H-dibenzo[a,c]carbazole-1-carboxylic acid methyl ester], the IC50 in the data set with HepG2 (Homo sapiens, HepG2, 48 h) was greater than 50 µM; with Hep3B (Homo sapiens, Hep3B) it was greater than 50 µM; with SMMC-7721 (Homo sapiens, SMMC-7721, 48 h), greater than 50 µM.
Regarding `COC(=O)C1(C)CCCC2(C)c3ccc(C(C)C)cc3-c3c(c4ccccc4n3CCN3CCN(c4ccccn4)CC3)C12` (stereo not shown) [Compound 6g, 2,3,4,4a,9,13c-Hexahydro-7-isopropyl-1,4a-dimethyl-9–(2-(4-(pyridine-2-yl)piperazin-1-yl)ethyl)-1H-dibenzo[a,c]carbazole-1-carboxylic acid methyl ester], the IC50 in the data set on HepG2 (Homo sapiens, HepG2, 48 h) was greater than 50 µM; with Hep3B (Homo sapiens, Hep3B) it was greater than 50 µM; with SMMC-7721 (Homo sapiens, SMMC-7721, 48 h) it was greater than 50 µM.
For the compound `COC(=O)C1(C)CCCC2(C)c3ccc(C(C)C)cc3-c3c(c4ccccc4n3CCN3CCN(Cc4ccccc4)CC3)C12` (stereo not shown) [Compound 6h, 2,3,4,4a,9,13c-Hexahydro-7-isopropyl-1,4a-dimethyl-9–(2-(4-benzylpiperazin-1-yl)ethyl)-1H-dibenzo[a,c]carbazole-1-carboxylic acid methyl ester], the IC50 in the data set with HepG2 (Homo sapiens, HepG2, 48 h) is greater than 50 µM; with Hep3B (Homo sapiens, Hep3B) it was greater than 50 µM; in the data set on SMMC-7721 (Homo sapiens, SMMC-7721, 48 h) it was greater than 50 µM.
For `COc1cccc2c1C(=O)c1c(O)c3c(c(O)c1C2=O)C[C@@](O)(C(=O)CO)C[C@@H]3O[C@H]1C[C@H](N)[C@H](O)[C@H](C)O1` [Doxorubicin, reference compound], the IC50 was determined as 13.8 ± 0.53 µM in data set [1] (Homo sapiens, QSG7701, 48 h); 2.38 ± 0.29 µM with HepG2 (Homo sapiens, HepG2, 48 h); 1.02 ± 0.09 µM with Hep3B (Homo sapiens, Hep3B); 1.13 ± 0.11 µM with SMMC-7721 (Homo sapiens, SMMC-7721, 48 h).
